Test results: patent US10251889B2, “Substituted pyrazolo[1,5-a]pyrimidine compounds as Trk kinase inhibitors” (Array BioPharma, Inc., priority 2009, dated 2019)

Target: Jak2 (human Jak2 kinase domain, amino acids 808-1132) (Homo sapiens (Human), UniProt O60674)
Experiment: Jak2 inhibition assay (Omnia kinase assay)
Type: biochemical
Conditions: read-out: Jak2 Enzyme (% inhibition at 1000 nM), Table 1; 1000 nM test compound

Chain of Jak2 (human Jak2 kinase domain, amino acids 808-1132) (O60674 808-1132): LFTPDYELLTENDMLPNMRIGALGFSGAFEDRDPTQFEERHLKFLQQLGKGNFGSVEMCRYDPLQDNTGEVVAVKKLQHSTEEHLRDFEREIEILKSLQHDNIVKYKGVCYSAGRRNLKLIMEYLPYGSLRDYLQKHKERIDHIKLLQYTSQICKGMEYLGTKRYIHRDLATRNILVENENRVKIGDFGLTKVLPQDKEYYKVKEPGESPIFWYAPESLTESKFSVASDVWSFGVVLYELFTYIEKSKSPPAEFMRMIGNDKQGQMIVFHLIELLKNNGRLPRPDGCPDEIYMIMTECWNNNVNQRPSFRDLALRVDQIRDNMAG

SMILES | inhibition at 1 µM
CN1CCN(CCNC(=O)c2cnn3ccc(N4CCC[C@@H]4c4cc(F)ccc4F)nc23)CC1 [Example 171, 5-((R)-2-(2,5-difluorophenyl)pyrrolidin-1-yl)-N-(2-(4-methylpiperazin-1-yl)ethyl)pyrazolo[1,5-a]pyrimidine-3-carboxamide] | 7.8%
O=C(NC1CCOCC1)c1cnn2ccc(N3CCC[C@@H]3c3cncc(F)c3)nc12 [Example 72, (R)-5-(2-(5-fluoropyridin-3-yl)pyrrolidin-1-yl)-N-(tetrahydro-2H-pyran-4-yl)pyrazolo[1,5-a]pyrimidine-3-carboxamide] | 11.7%
C[C@H](NC(=O)c1cnn2ccc(N3[C@@H](c4cncc(F)c4)CC[C@@]3(C)CO)nc12)C(F)(F)F [Example 220, 5-((2S,5R)-5-(5-fluoropyridin-3-yl)-2-(hydroxymethyl)-2-methylpyrrolidin-1-yl)-N—((S)-1,1,1-trifluoropropan-2-yl)pyrazolo[1,5-a]pyrimidine-3-carboxamide] | 15.2%
CC(C)NC(=O)c1cnn2ccc(N3C[C@@H](O)C[C@@H]3c3cccc(F)c3)nc12 [Example 217, 5-((2R,4S)-2-(3-fluorophenyl)-4-hydroxypyrrolidin-1-yl)-N-isopropylpyrazolo[1,5-a]pyrimidine-3-carboxamide] | 61.7%
Cn1cnc(CNC(=O)c2cnn3ccc(N4CCC[C@@H]4c4cc(F)ccc4F)nc23)c1 [Example 21, (R)-5-(2-(2,5-difluorophenyl)pyrrolidin-1-yl)-N-((1-methyl-1H-imidazol-4-yl)methyl) pyrazole[1,5-a]pyrimidine-3-carboxamide] | 5.8%
Cc1ncc(F)cc1[C@H]1CCCN1c1ccn2ncc(C(=O)NC(C)C)c2n1 [Example 184, (R)-5-(2-(5-fluoro-2-methylpyridin-3-yl)pyrrolidin-1-yl)-N-isopropylpyrazolo[1,5-a]pyrimidine-3-carboxamide] | 11.8%
Cn1cc(F)cc([C@H]2CCCN2c2ccn3ncc(C(=O)N[C@@H]4CCCC[C@H]4O)c3n2)c1=O [Example 234, 5-((R)-2-(5-fluoro-1-methyl-2-oxo-1,2-dihydropyridin-3-yl)pyrrolidin-1-yl)-N-((1R,2R)-2-hydroxycyclohexyl)pyrazolo[1,5-a]pyrimidine-3-carboxamide] | 5.3%
C[C@@H](NC(=O)c1cnn2ccc(N3CCC[C@@H]3c3cc(F)cn(C)c3=O)nc12)C1CC1 [Example 235, N-((R)-1-cyclopropylethyl)-5-((R)-2-(5-fluoro-1-methyl-2-oxo-1,2-dihydropyridin-3-yl)pyrrolidin-1-yl)pyrazolo[1,5-a]pyrimidine-3-carboxamide] | 73.1%
O=C(NC1CC1)c1cnn2ccc(N3CCC[C@@H]3c3cc(F)ccc3F)nc12 [Example 13, (R)—N-cyclopropyl-5-(2-(2,5-difluorophenyl)pyrrolidin-1-yl)pyrazolo[1,5-a]pyrimidine-3-carboxamide] | 41.4%
COc1ncc(F)cc1[C@H]1CCCN1c1ccn2ncc(C(=O)NC[C@H](O)CO)c2n1 [Example 143, N—((S)-2,3-dihydroxypropyl)-5-((R)-2-(5-fluoro-2-methoxypyridin-3-yl)pyrrolidin-1-yl)pyrazolo[1,5-a]pyrimidine-3-carboxamide] | 7%
C[C@H](O)CNC(=O)c1cnn2ccc(N3CCC[C@@H]3c3cc(F)ccc3F)nc12 [Example 166, 5-((R)-2-(2,5-difluorophenyl)pyrrolidin-1-yl)-N-(2-hydroxypropyl)pyrazolo[1,5-a]pyrimidine-3-carboxamide] | 13.8%
COc1ncc(F)cc1[C@H]1CCCN1c1ccn2ncc(C(=O)NCC(O)CO)c2n1 (stereo partly drawn) [Example 149, N-(2,3-dihydroxypropyl)-5-((R)-2-(5-fluoro-2-methoxypyridin-3-yl)pyrrolidin-1-yl)pyrazolo[1,5-a]pyrimidine-3-carboxamide] | 10.2%
O=C(NC1CC1)c1cnn2ccc(N3CCC[C@@H]3c3cc(F)cc(OCCN4CCOCC4)c3)nc12 [Example 85, (R)—N-cyclopropyl-5-(2-(3-fluoro-5-(2-morpholinoethoxy)phenyl)pyrrolidin-1-yl)pyrazolo[1,5-a]pyrimidine-3-carboxamide] | 6%
Cc1ncc(F)cc1[C@H]1CCCN1c1ccn2ncc(C(=O)NC3(CO)CC3)c2n1 [Example 193, (R)-5-(2-(5-fluoro-2-methylpyridin-3-yl)pyrrolidin-1-yl)-N-(1-(hydroxymethyl)cyclopropyl)-pyrazolo[1,5-a]pyrimidine-3-carboxamide] | 8.4%
CC1(O)CN(C(=O)c2cnn3ccc(N4CCC[C@@H]4c4cc(F)ccc4F)nc23)C1 [Example 32, (R)-(5-(2-(2,5-difluorophenyl)pyrrolidin-1-yl)pyrazolo[1,5-a]pyrimidin-3-yl)(3-hydroxy-3-methylazetidin-1-yl)methanone] | 8.6%
COCCOc1ccc(F)cc1[C@H]1CCCN1c1ccn2ncc(C(=O)NC3CC3)c2n1 [Example 90, (R)—N-cyclopropyl-5-(2-(5-fluoro-2-(2-methoxyethoxy)phenyl)pyrrolidin-1-yl)pyrazolo[1,5-a]pyrimidine-3-carboxamide] | 67.3%

SMILES | inhibition at 1 µM
COc1ncc(F)cc1[C@H]1CCCN1c1ccn2ncc(C(N)=O)c2n1 [Example 82, (R)-5-(2-(5-fluoro-2-methoxypyridin-3-yl)pyrrolidin-1-yl)pyrazolo[1,5-a]pyrimidine-3-carboxamide] | 10.7%
O=C(c1cnn2ccc(N3CCC[C@@H]3c3cncc(F)c3)nc12)N1CC(CO)C1 [Example 127, (R)-(5-(2-(5-fluoropyridin-3-yl)pyrrolidin-1-yl)pyrazolo[1,5-a]pyrimidin-3-yl)(3-(hydroxymethyl)azetidin-1-yl)methanone] | 0.2%
CC(C)[C@@H](CO)NC(=O)c1cnn2ccc(N3CCC[C@@H]3c3cc(F)ccc3F)nc12 [Example 179, 5-((R)-2-(2,5-difluorophenyl)pyrrolidin-1-yl)-N-((S)-1-hydroxy-3-methylbutan-2-yl)pyrazolo[1,5-a]pyrimidine-3-carboxamide] | -0.2%
O=C(N[C@H]1CC[C@H](C(=O)O)CC1)c1cnn2ccc(N3CCC[C@@H]3c3cc(F)ccc3F)nc12 [Example 33, Trans-4-(5-((R)-2-(2,5-difluorophenyl)pyrrolidin-1-yl)pyrazolo[1,5-a]pyrimidine-3-carboxamido)cyclohexanecarboxylic Acid] | 99.9%
COc1ccc(F)cc1[C@H]1CCCN1c1ccn2ncc(C(=O)NCCN3CCOCC3)c2n1 [Example 54, (R)-5-(2-(5-fluoro-2-methoxyphenyl)pyrrolidin-1-yl)-N-(2-morpholinoethyl)pyrazolo[1,5-a]pyrimidine-3-carboxamide] | 23%
CC1(O)CN(C(=O)c2cnn3ccc(N4CCC[C@@H]4c4cncc(F)c4)nc23)C1 [Example 92, (R)-(5-(2-(5-fluoropyridin-3-yl)pyrrolidin-1-yl)pyrazolo[1,5-a]pyrimidin-3-yl)(3-hydroxy-3-methylazetidin-1-yl)methanone] | 0.5%
C[C@@H](CO)NC(=O)c1cnn2ccc(N3CCC[C@@H]3c3cc(F)ccc3F)nc12 [Example 177, 5-((R)-2-(2,5-difluorophenyl)pyrrolidin-1-yl)-N-((S)-1-hydroxypropan-2-yl)pyrazolo[1,5-a]pyrimidine-3-carboxamide] | 26.2%
O=C(NOC[C@@H](O)CO)c1cnn2ccc(N3CCC[C@@H]3c3cc(F)ccc3F)nc12 [Example 88, 5-((R)-2-(2,5-difluorophenyl)pyrrolidin-1-yl)-N—((S)-2,3-dihydroxypropoxy)pyrazolo[1,5-a]pyrimidine-3-carboxamide] | 15.1%
NC(=O)c1cnn2ccc(N3CCC[C@@H]3c3cc(F)ccc3C(F)(F)F)nc12 [Example 64, (R)-5-(2-(5-fluoro-2-(trifluoromethyl)phenyl)pyrrolidin-1-yl)pyrazolo[1,5-a]pyrimidine-3-carboxamide] | 60.3%
COCCOc1ccc(F)cc1[C@H]1CCCN1c1ccn2ncc(C(N)=O)c2n1 [Example 89, (R)-5-(2-(5-fluoro-2-(2-methoxyethoxy)phenyl)pyrrolidin-1-yl)pyrazolo[1,5-a]pyrimidine-3-carboxamide] | 33.1%
O=C(NC[C@H](O)CO)c1cnn2ccc(N3CCC[C@@H]3c3cc(F)ccc3F)nc12 [Example 29, 5-((R)-2-(2,5-difluorophenyl)pyrrolidin-1-yl)-N—((S)-2,3-dihydroxypropyl)pyrazolo[1,5-a]pyrimidine-3-carboxamide] | 13.2%
CNC(=O)c1cnn2ccc(N3CCC[C@@H]3c3cc(F)cnc3OC)nc12 [Example 153, (R)-5-(2-(5-fluoro-2-methoxypyridin-3-yl)pyrrolidin-1-yl)-N-methylpyrazolo[1,5-a]pyrimidine-3-carboxamide] | 33.8%
COc1ncc(F)cc1[C@H]1CCCN1c1ccn2ncc(C(=O)NCCCCO)c2n1 [Example 151, (R)-5-(2-(5-fluoro-2-methoxypyridin-3-yl)pyrrolidin-1-yl)-N-(4-hydroxybutyl)pyrazolo[1,5-a]pyrimidine-3-carboxamide] | 35.6%
O=C(NCCc1c[nH]cn1)c1cnn2ccc(N3CCC[C@@H]3c3cc(F)ccc3F)nc12 [Example 25, (R)—N-(2-(1H-imidazol-4-yl)ethyl)-5-(2-(2,5-difluorophenyl)pyrrolidin-1-yl)pyrazole [1,5-a]pyrimidine-3-carboxamide] | 19.4%
CONC(=O)c1cnn2ccc(N3CCC[C@@H]3c3cc(F)cnc3OC)nc12 [Example 83, (R)-5-(2-(5-fluoro-2-methoxypyridin-3-yl)pyrrolidin-1-yl)-N-methoxypyrazolo[1,5-a]pyrimidine-3-carboxamide] | 26.3%
COCCNC(=O)c1cnn2ccc(N3CCC[C@@H]3c3cc(F)cnc3C)nc12 [Example 191, (R)-5-(2-(5-fluoro-2-methylpyridin-3-yl)pyrrolidin-1-yl)-N-(2-methoxyethyl)pyrazolo[1,5-a]pyrimidine-3-carboxamide] | 4.8%
